Each block holds one compound with its values, some of them ahead of it.
Assays:
[1] = test system: non-secreted Gaussia luciferase; test: Kinetic luminescence assay of non-secreted Gaussia luciferase in HeLa cell lysate with reducing agent in assay buffer; assay type: biochemical; settings: for decay in luminescent signal over time compared with absence of reducing agent: all concentrations tested: DTT 4-50 mM, β-mercaptoethanol 10-100 mM, TCEP 500 uM or 5 mM, FIGS. 1A, 1B
Experimental: HeLa cells stably expressing non-secreted and destabilized Gaussia luciferase were plated onto 96-well plates and incubated overnight. The non-secreted luciferase is a modified Gaussia luciferase in which the 14 amino acid N-terminal signal peptide has been deleted. The destabilised luciferase is an enzyme containing a destabilising element such that it has a shortened half-life and is expressed at lower steady-state level than in the absence of the destabilising element.
Following the overnight incubation, medium was removed and the cells lysed in 20 ul lysis buffer comprising 25 mM Tris pH 8.1, 150 mM NaBr, 1 mM EDTA, 63.4 uM sodium oxalate, 0.1% NP40 substitute, 5% glycerol (GSv3). Luciferase activity was measured in a kinetic assay following injection of 60 ul of an assay buffer comprising 25 mM Tris pH 8.1; 1 mM EDTA, 2 mM Ascorbate and 26 uM Cz (STD), or the same assay buffer but also containing a reducing agent. Various concentrations of three reducing agents were used: DTT (4 mM, 10 mM, 20 mM or 50 mM); β-mercaptoethanol (10 mM, 20 mM, 50 mM, or 100 mM); and TCEP (500 uM or 5 mM). […] The effect was strongest at higher concentrations of a given reducing agent. […] The inventors have determined that this higher concentration produced beneficial effects in terms of bioluminescence generated by Gaussia luciferase. […]

[2] = test system: non-secreted Metridia luciferase; test: Kinetic luminescence assay of non-secreted Metridia luciferase in HeLa cell lysate; assay type: biochemical; settings: up to 120 minutes
Text: (§1) HeLa cells were transiently transfected with expression plasmids encoding either Gaussia or Metridia luciferases in either their native secreted form or a modified non-secreted form. Secreted Metridia luciferase was obtained from Clontech and non-secreted Metridia luciferase was created in an analogous way to non-secreted Gaussia luciferase. The coding region was obtained by PCR using primers that delete the first 16 amino acids after ATG (the secretion signal) and the stop codon. The PCR product was ligated into a pRR23.1 plasmid (GeneStream, AU) to create a non-secreted but destabilized Metridia luciferase.
One day after transfection conditioned medium was removed for the secreted luciferases and the non-secreted luciferases were lysed as described in Example 1. Aliquots (20 ul) of conditioned medium or lysate were assayed for luciferase activity in kinetic assays following manual injection of assay buffer comprising the indicated concentrations of DTT in 25 mM Tris pH 7.75; 1 mM EDTA; 2 mM Ascorbic acid and 26 uM coelenterazine.
Experiments were performed as described in Example 5 for the non-secreted Gaussia and Metridia luciferases, except that the reducing agents used were: dithioerythritol (DTE) (FIGS. 6A and 6D); sodium sulfite (FIG. 6B); cysteamine (FIGS. 6C and 6E); TCEP (FIG. 6F); and β-mercaptoethanol (FIG. 6G).

[3] = test system: wild-type secreted Gaussia luciferase; test: Kinetic luminescence assay of secreted Gaussia luciferase in conditioned medium; assay type: biochemical
Experimental: Similar experiments were performed as described in Example 1 with the exception that the effect of DTT on the time course of luminescence was also investigated for the wild-type secreted Gaussia luciferase. This was achieved by transiently transfecting HeLa cells with a reporter plasmid encoding the wild-type Gaussia luciferase protein and harvesting the conditioned medium 24 hrs later. The assay buffer (with either 50 mM DTT or no DTT) was injected into wells containing 20 ul of the conditioned medium. Results were expressed as the % signal remaining compared to time zero (see FIG. 3).
as §1
One day after transfection conditioned medium was removed for the secreted luciferases and the non-secreted luciferases were lysed as described in Example 1. […]

[4] = biological target: T1, intracellular Renilla luciferase (Renilla reniformis, UniProt P27652); test: Kinetic luminescence assay of Renilla luciferase in HeLa cell lysate; assay type: biochemical; settings: 50 mM DTT in assay buffer; FIG. 4
T1 construct: expressed in transfected cells; host or cells: HeLa, transient; cell lysate
T1 sequence (P27652 1-311): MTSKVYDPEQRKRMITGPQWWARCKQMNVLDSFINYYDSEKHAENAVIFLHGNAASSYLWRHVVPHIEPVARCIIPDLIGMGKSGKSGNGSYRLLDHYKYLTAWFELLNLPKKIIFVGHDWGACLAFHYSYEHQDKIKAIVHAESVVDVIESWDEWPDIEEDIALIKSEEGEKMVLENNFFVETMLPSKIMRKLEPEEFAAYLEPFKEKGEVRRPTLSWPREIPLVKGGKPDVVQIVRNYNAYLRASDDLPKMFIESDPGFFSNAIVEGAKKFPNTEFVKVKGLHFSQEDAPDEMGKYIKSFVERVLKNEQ
Experimental: Similar experiment to those described in Example 1 were performed, with the exception that the HeLa cells transiently expressed the intracellular Renilla luciferase. A kinetic assay was performed after injection of assay buffer (with 50 mM DTT or no DTT) into wells containing 20 ul of lysate.

[5] = test system: secreted Metridia luciferase; test: Kinetic luminescence assay of secreted Metridia luciferase in conditioned medium; assay type: biochemical; settings: varying DTT in assay buffer; up to 120 minutes; FIG. 5D
Text: as §1, with “Metridia luciferase. One day after transfection conditioned medium was removed for the secreted luciferases and the non-secreted luciferases were lysed as described in Example 1. Aliquots (20 ul) of conditioned medium or lysate were assayed for luciferase activity in kinetic assays following manual injection of assay buffer comprising the indicated concentrations of DTT in 25 mM Tris pH 7.75; 1 mM EDTA; 2 mM Ascorbic acid and 26 uM coelenterazine.” for “Metridia luciferase.”

[6] = test system: non-secreted and destabilized Gaussia luciferase; test: Dual-luciferase assay (Gaussia then firefly) in HeLa cell lysate; assay type: biochemical; settings: Gaussia assay buffer with 50 mM DTT; FIG. 8
Experimental: HeLa cells stably expressing both a non-secreted and destabilized Gaussia luciferase and a destabilized firefly luciferase were plated onto 96-well plates and incubated overnight. Medium was removed and the cells lysed in 20 ul of the lysis buffer described in Example 1. Light emission was measured for 1 sec in a luminometer at the following times: immediately before addition of assay buffer (LB=background signal in absence of substrate); immediately after addition of Gaussia assay buffer (Ga) comprising 25 mM Tris pH 8.1; 1 mM EDTA, 2 mM Ascorbate, 23.6 uM Cz and 50 mM DTT; 15 mins after addition of Ga assay buffer (15 mins); and subsequently at 1 sec after addition of 60 ul of a firefly assay buffer (FF) comprising 25 mM Tris pH 7.35, 6 mM MgSO4, 36 mM DTT, 0.11 mM EDTA, 0.58 mM ATP, 0.3 mM CoA, 0.52 mM Luciferin, 1 mg/ml BSA. The results shown in FIG. 8 illustrate a strong Gaussia luciferase bioluminescent signal that can be measured in a flash reaction but which decays to background levels within approximately 15 mins without intervention or the need to add quenching reagents. Subsequent addition of a firefly reagent allows measurement of the firefly signal, thus completing a dual-luciferase assay.

[7] = test system: secreted Gaussia luciferase; test: Secreted Gaussia luciferase signal in cell lysate, lysis buffer with DTT; assay type: biochemical; settings: 50 mM DTT in lysis buffer; 2 hour time-point, without doxycycline; FIG. 11B
Experimental: To test this hypothesis, HeLa cells were co-transfected with plasmids TRE-Rn and CMV-Ga (wild type, secreted), either alone or in combination. The latter provides constitutive expression of secreted Gaussia luciferase, whilst the former provides a doxycycline-repressible expression of intracellular Renilla luciferase. The cells were incubated overnight, the medium was removed and the cells rinsed once before addition of a fresh aliquot of medium either with or without 2 ug/ml doxycyline. At 2, 6 and 24 hrs later, samples of conditioned medium were taken. The cells were rinsed in fresh medium before being lysed using lysis buffer comprising 25 mM Tris pH 8.1, 150 mM NaBr, 1 mM EDTA, 63.4 uM sodium oxalate, 0.1% NP40 substitute, 5% glycerol; either with or without 50 mM DTT. 20 ul aliquots of conditioned medium and cell lysate were then assayed for luciferase activity following addition of 60 ul of assay buffer comprising 25 mM Tris pH 7.75; 1 mM EDTA; 2 mM Ascorbic acid and 26 uM coelenterazine.

[8] = Background luminescent signal in lysate of non-transfected HeLa cells; settings: DTT in assay buffer
Experimental: (§2) Non-transfected HeLa cells and HeLa cells expressing non-secreted Gaussia luciferase were subjected to luciferase assays as follows. Cells were plated in equal aliquots onto a 96-well plate and incubated overnight. Medium was removed and cells lysed in 20 ul of the lysis buffer described in Example 1. Forty minutes later, light emission was measured using a Wallac Victor 3 luminometer (Perkin Elmer) immediately before and after injection of 60 ul of assay buffer comprised 25 mM Tris pH 8.1, 23.6 uM coelenterazine, 1 mM EDTA, 2 mM ascorbate plus the indicated concentration of DTT (see FIG. 8).

[9] = test system: non-secreted Gaussia luciferase; test: Flash intensity of non-secreted Gaussia luciferase in HeLa cell lysate; assay type: biochemical; settings: 50 mM DTT in assay buffer; FIG. 12C
Experimental: as §2

[10] = test system: destabilised, non-secreted Gaussia luciferase; settings: 5 mM glutathione (3:2 reduced:oxidized); fresh buffer; FIG. 15
Experimental: HeLa cells expressing a destabilised, non-secreted Gaussia luciferase were plated in equal aliquots onto 96-well plates and incubated overnight. The same lysis buffer was used for all samples. Luciferase activity was measured using fresh assay buffer containing the total amounts of glutathione (3:2 ratio of reduced:oxidized) indicated in FIG. 15. The assay buffers were then stored at room temperature for 7 hrs or at 4° C. for 22 hrs and used again to measure replicate samples.

[11] = test system: destabilised, non-secreted Gaussia luciferase; settings: fresh assay buffer with glutathione; FIG. 14
Experimental: HeLa cells expressing a destabilised, non-secreted Gaussia luciferase were plated in equal aliquots onto 96-well plates and incubated overnight. The same lysis buffer was used for all samples. […] The assay buffers were then stored at room temperature for 4 hrs and used again to measure replicate samples.

[12] = varying concentrations of reducing agent, up to 50 minutes, FIGS. 6D-6G
[13] = varying concentrations of reducing agent, FIGS. 6A-6C

SMILES: O[C@H](CS)[C@@H](O)CS [DTE, dithioerythritol]
- light emission over time [1, 12]: rapid decline in light emission
- light emission over time [2, 13]: rapid decline in light emission

SMILES: O[C@H](CS)[C@H](O)CS [DTT, dithiothreitol]
- light emission over time (% signal remaining compared to time zero) ([1]; 50 mM DTT in assay buffer, modified non-secreted form, FIG. 3): very rapid decline in light emission
- time for signal to drop to approximately background levels (~100 RLU) ([1]; DTT 50 mM to 500 mM, all concentrations, FIG. 2B): ≤ 10 min
- rate of decay in luminescent signal versus concentration ([1]; DTT 50 mM to 500 mM, FIG. 2A): directly related to the concentration of DTT
- light emission after addition during glow phase (% of light units at time zero) ([1]; DTT added 40 minutes after initiation of reaction, FIG. 7): rapid decline in light emission
- light emission during the first few seconds after injection of the reducing agent ([1]; DTT added during glow phase, FIG. 7): lack of any significant decay in light emission
- decay in luminescent signal over time compared with absence of reducing agent [1]: more rapid decay in luminescent signal
- initial signal intensity ([1]; up to 50 mM DTT): does not cause any reduction in initial signal intensity
- light emission over time ([1]; varying DTT in assay buffer, up to 120 minutes, FIG. 5A): very rapid decline in light emission
- light emission over time (% signal remaining compared to time zero) ([3]; 50 mM DTT in assay buffer, native secreted form, conditioned medium, FIG. 3): very rapid decline in light emission
- light emission over time ([3]; varying DTT in assay buffer, up to 120 minutes, FIG. 5B): very rapid decline in light emission
- kinetics of light emission [4]: prolongs the light emission
- light emission over time ([2]; varying DTT in assay buffer, FIG. 5C): very rapid decline in light emission
- light emission over time [5]: very rapid decline in light emission
- time for Gaussia luciferase signal to decay to background levels [6]: ≤ 15 min
- signal in the lysate of cells expressing only Gaussia luciferase [7]: no signal was detected
- reduction in the background signal generated by the assay buffer ([8]; after subtraction of the pre-read, FIG. 12B): more than 80%
- reduction in the overall background signal ([8]; raw RLU after injection, FIG. 12A): more than 50%
- true luciferase signal in flash reactions [9]: does not reduce the true luciferase signal

SMILES: O=C(O)CCP(CCC(=O)O)CCC(=O)O [TCEP, tris(2-carboxyethyl)phosphine]
- decay in luminescent signal over time compared with absence of reducing agent [1]: more rapid decay in luminescent signal
- light emission over time [1, 12]: rapid decline in light emission

SMILES: NCCS [cysteamine]
- light emission over time [1, 12]: rapid decline in light emission
- light emission over time [2, 13]: rapid decline in light emission

- initial activity of assay buffer [10]: initial activity was reduced
- baseline activity of the fresh buffers [11]: reduces the assay buffer activity
SMILES: N[C@@H](CCC(=O)N[C@@H](CS)C(=O)NCC(=O)O)C(=O)O [glutathione]

SMILES: O=S([O-])[O-].[Na+].[Na+] [sodium sulfite]
- light emission over time [2, 13]: rapid decline in light emission

SMILES: OCCS [β-mercaptoethanol]
- decay in luminescent signal over time compared with absence of reducing agent [1]: more rapid decay in luminescent signal
- light emission over time [1, 12]: rapid decline in light emission

Source: patent publication US11078519B2, “Bioluminescent assays utilising secreted luciferases” (GENE STREAM PTY LTD., priority 2006, dated 2021)
